Here are results for 2 compounds from publication PMC12797250, “Structure–activity relationships can be directly extracted from high-throughput crystallographic evaluation of fragment elaborations in crude reaction mixtures” (Chemical Science, 2025).

The target of test [1] is T1, PHIP(2) (Homo sapiens, UniProt Q8WWQ0).
T1 construct: second bromodomain
The test is described as follows: grating-coupled interferometry (waveRAPID), immobilised PHIP([…]). It counts as binding.

Test [2] has as its target T1, PHIP(2). The test is described as follows: X-ray crystallography, crystal soak. It is filed as binding. Conditions: acetylated lysine site; soak 8 mM, 24 h, 4 °C, 20% ethylene glycol, pH about 5.6; flipped and translated pose.

As to `CNC(=O)N1CCN(C(=O)c2ccc(COc3ccccc3)o2)CC1` [LAT33], in test [1], the Kd is 18 µM.

Consider `CC1=Nc2ccc(C(=O)N3CCN(C(=O)NC(C)(C)C)CC3)cc2C1(C)C` [LAT39], for which, in test [2], the “X-ray crystallography, crystal soak” value is “long extensions towards the solvent (7FV8, LAT25 and 7FUZ, LAT39)”.
